The values below come from patent US4190666A, “Anti-inflammatory 4,5-diarly-2-(substituted-thio)imidazoles and their corresponding sulfoxides and sulfones” (E. I. Du Pont de Nemours and Company, priority 1978, dated 1980).

The subject of experiment [1] is established adjuvant-induced arthritis in rats. The experiment is described as follows: Established adjuvant-induced arthritis in rats (therapeutic, paw volume). It is filed as in vivo, Charles River Lewis male rats. The conditions noted are these: for ED50: Rattus norvegicus, read-out: Adjuvant Arthritis (ED50%); for ED50 / Adjuvant Arthritis (ED50%): established arthritis, 7 daily doses, ED50% decrease from control paw volume, Tables I-III.

The subject of experiment [2] is phenylquinone writhing syndrome. The experiment is described as follows: Phenylquinone writhing test (analgesic activity). It is filed as in vivo, female white mice. Conditions: oral; for ED50: Mus musculus, 1% methylcellulose, Tables VIII and IX, read-out: ED50 (effective analgesic dose for 50% of the mice); for peak time: time of peak action. On the procedure: Phenylquinone Writhing Test A standard procedure for detecting and comparing the analgesic activity of compounds in this series for which there is good correlation with human efficacy is the standard phenylquinone writhing test modified from Siegmund, et al., Proc. Soc. Exp. Biol. Med. 95, 729 (1957). […] Aqueous (0.01% phenyl-p-benzoquinone) phenylquinone was injected intraperitoneally at 24 minutes later using 0.20 ml per mouse. […] The effective analgesic dose for 50% of the mice (ED50) was calculated by the moving average method of Thompson, W. R., Bact. Rev. 11, 115-145 (1947); also time of peak action was determined for many of the compounds.

Read-outs that look alike come from different tables or passages of the source.

For the molecule `COc1ccc(-c2nc(S(=O)(=O)C(F)F)[nH]c2-c2ccc(OC)cc2)cc1` [Example 74], the ED50 in experiment [1] (po) was 0.5 mg/kg; in experiment [2] it was 1.5 mg/kg.

On to `CCOc1ccc(-c2[nH]c(S(=O)(=O)C(F)(F)C(F)F)nc2-c2ccccc2)cc1` [Example 142], for which the ED50 in experiment [1] (po) was 1.5 mg/kg. Also, in experiment [2], the ED50 was found to be 0.95 mg/kg and the peak time worked out at 120 min.

As to `COc1ccc(-c2nc(S(=O)(=O)C(F)(F)F)[nH]c2-c2ccc(OC)cc2)cc1` [Example 127, 4,5-bis(4-methoxyphenyl)-2-(trifluoromethylsulfonyl)imidazole], the ED50 turned out to be 0.33 mg/kg in experiment [1] (po) and 0.045 mg/kg in experiment [2]. Also, in experiment [2], the peak time stood at 240 min.

For the molecule `COc1ccc(-c2nc(S(=O)(=O)C(F)(F)C(F)F)[nH]c2-c2ccc(OC)cc2)cc1` [Example 64, 4,5-bis(4-methoxyphenyl)-2-(1,1,2,2-tetrafluoroethylsulfonyl)imidazole], the ED50 in experiment [1] (po) is 1.1 mg/kg. Moreover, in experiment [2], the ED50 came to 0.11 mg/kg and the peak time worked out at 120 min.

For `COc1ccc(-c2nc(S(=O)(=O)C(F)(F)C(F)F)[nH]c2-c2ccccc2)cc1` [Example 82], the ED50 in experiment [1] (po) was 1.1 mg/kg; in experiment [2], 0.33 mg/kg. Further, the peak time in experiment [2] amounted to 240 min.

Take `COc1ccc(-c2nc(S(=O)(=O)C(F)(F)C(F)Br)[nH]c2-c2ccc(OC)cc2)cc1` (stereo not shown) [Example 95]: the ED50 came out at 2.4 mg/kg in experiment [1] (po) and 2.8 mg/kg in experiment [2].

With `COc1ccc(-c2nc(SCC(F)(F)F)[nH]c2-c2ccc(OC)cc2)cc1` [Example 4, 4,5-bis-(4-Methoxyphenyl)-2-(2,2,2-trifluoroethylthio)imidazole], the ED50 in experiment [1] (po) was 20 mg/kg. Also, in experiment [2], the ED50 was 1.2 mg/kg and the peak time amounted to 240 min.

As to `COc1ccc(-c2nc(S(=O)(=O)C(F)(F)F)[nH]c2-c2ccc(F)cc2)cc1` [Example 130], the ED50 came to 1.4 mg/kg in experiment [1] (po) and 0.1 mg/kg in experiment [2].

On to `COc1ccc(-c2[nH]c(SC(F)(F)C(F)F)nc2-c2ccc(F)cc2)cc1` [Example 117], for which the ED50 in experiment [1] (po) was 14 mg/kg.

Consider `CS(=O)(=O)c1nc(-c2ccccc2)c(-c2cccc(Cl)c2)[nH]1` [Example 149], for which the “percent (%) reduction in paw volume measured at the indicated dose” value (from here on “percent (%) reduction in paw volume”) in experiment [1] (10 mg./kg., oral) was 55%.

As to `CSc1nc(-c2ccccc2)c(-c2cccc(F)c2)[nH]1` [Example 113], in experiment [1] (po), the ED50 stood at 50 mg/kg.

Consider `O=S(=O)(c1nc(-c2ccccc2)c(-c2ccccc2)[nH]1)C(F)F` [Example 75], for which, in experiment [1] (po), the ED50 came to 0.35 mg/kg.

In the case of `CSc1nc(-c2ccc(Cl)cc2)c(-c2ccc(Cl)cc2)[nH]1` [Example 26, 4,5-bis(4-chlorophenyl)-2-methylthioimidazole], the ED50 in experiment [1] (po) turned out to be 3 mg/kg.

As for `O=S(=O)(c1nc(-c2ccc(F)cc2)c(-c2ccccc2)[nH]1)C(F)(F)C(F)F` [Example 92, 4(or 5)-(4-fluorophenyl)-5(or 4)-phenyl-2-(1,1,2,2-tetrafluoroethylsulfonyl)imidazole], the ED50 in experiment [1] (po) is 0.027 mg/kg.

Consider `CCC[S+]([O-])c1nc(-c2ccc(OC)cc2)c(-c2ccc(OC)cc2)[nH]1` (stereo not shown) [Example 61], for which, in experiment [1] (po), the ED50 came out at 13 mg/kg.

`FC(F)(F)CSc1nc(-c2ccc(Cl)cc2)c(-c2ccc(Cl)cc2)[nH]1` [Example 7, 4,5-bis(4-Chlorophenyl)-2-(2,2,2-trifluoroethylthio)imidazole]: in experiment [1] (po), the ED50 stood at 5 mg/kg.

On to `COc1ccc(-c2nc(SC)[nH]c2-c2ccc(OC)cc2)cc1` [Example 15, 4,5-bis(4-Methoxyphenyl)-2-methylthioimidazole], for which the ED50 in experiment [1] (po) was 4.4 mg/kg.

Take `CS(=O)(=O)c1nc(-c2ccc(Cl)cc2)c(-c2ccc(Cl)cc2)[nH]1` [Example 67]: the ED50 in experiment [1] (po) amounted to 2 mg/kg.

Regarding `COc1ccc(-c2nc([S+]([O-])CC(C)=O)[nH]c2-c2ccc(OC)cc2)cc1` (stereo not shown) [Example 98], the ED50 in experiment [1] (po) was 56 mg/kg.

Consider `O=S(=O)(c1nc(-c2ccccc2)c(-c2ccccc2)[nH]1)C(F)(F)C(Cl)Cl` [Example 76], for which, in experiment [1] (po), the ED50 amounted to 1.5 mg/kg.

In the case of `CS(=O)(=O)c1nc(-c2ccccc2)c(-c2ccc(Cl)c(Cl)c2)[nH]1` [Example 145], in experiment [1] (50 mg./kg., oral), the “percent (%) reduction in paw volume” value is listed as 59%.

Turning to `O=S(=O)(c1nc(-c2ccccc2)c(-c2cccc(F)c2)[nH]1)C(F)(F)C(F)F` [Example 143], the ED50 in experiment [1] (po) worked out at 0.06 mg/kg.

Consider `O=S(=O)(c1nc(-c2ccccc2)c(-c2ccccc2)[nH]1)C(F)(F)CF` [Example 124], for which the ED50 in experiment [1] (po) came to 0.15 mg/kg.

With `CS(=O)(=O)c1nc(-c2ccc(F)cc2)c(-c2ccc(C(F)(F)F)cc2)[nH]1` [Example 87], in experiment [1] (po), the ED50 amounted to 3.7 mg/kg.

On to `COc1ccc(-c2nc(SCC(C)=O)[nH]c2-c2ccc(OC)cc2)cc1` [Example 16, 2-Acetonylthio-4,5-bis(4-methoxyphenyl)imidazole], for which the ED50 in experiment [1] (po) turned out to be 9.4 mg/kg.

`FC(Br)C(F)(F)Sc1nc(-c2ccccc2)c(-c2ccccc2)[nH]1` (stereo not shown) [Example 52, 2-(2-bromo-1,1,2-trifluoroethylthio)-4,5-diphenylimidazole]: in experiment [1] (oral), the “Adjuvant Arthritis (ED50%)” value came out at 11 mg/kg.

For `Fc1ccc(-c2nc(SC(F)(F)C(F)(F)F)[nH]c2-c2ccc(F)cc2)cc1` [Example 110], the ED50 in experiment [1] (po) came out at 0.2 mg/kg.

Consider `[O-][S+](CC(F)(F)F)c1nc(-c2ccccc2)c(-c2ccccc2)[nH]1` (stereo not shown) [Example 2, 4,5-Diphenyl-2-(2,2,2-trifluoroethylsulfinyl)imidazole], for which, in experiment [1] (po), the ED50 was 48 mg/kg.

Regarding `CCCS(=O)(=O)c1nc(-c2ccc(OC)cc2)c(-c2ccc(OC)cc2)[nH]1` [Example 62], in experiment [1] (po), the ED50 stood at 9 mg/kg.

Take `O=S(=O)(CC(F)(F)F)c1nc(-c2ccccc2)c(-c2ccccc2)[nH]1` [Example 3, 4,5-Diphenyl-2-(2,2,2-trifluoroethylsulfonyl)imidazole]: the ED50 in experiment [1] (po) is 12 mg/kg.

On to `O=[N+]([O-])c1ccc(-c2nc(S(=O)(=O)C(F)(F)C(F)F)[nH]c2-c2ccc([N+](=O)[O-])cc2)cc1` [Example 135], for which, in experiment [1] (oral), the ED50 came out at 8.5 mg/kg.

`COc1cccc(-c2nc(S(=O)(=O)C(F)(F)C(F)F)[nH]c2-c2cccc(OC)c2)c1` [Example 84]: in experiment [1] (po), the ED50 worked out at 4 mg/kg.

Turning to `C=CCSc1nc(-c2ccc(OC)cc2)c(-c2ccc(OC)cc2)[nH]1` [Example 11, 2-Allylthio-4,5-bis(4-methoxyphenyl)imidazole], the ED50 in experiment [1] (po) came out at 22 mg/kg.

For `O=S(=O)(c1nc(-c2ccc(Cl)cc2)c(-c2ccc(Cl)cc2)[nH]1)C(F)F` [Example 77], the ED50 in experiment [1] (po) is 0.35 mg/kg.

`COc1ccc(-c2nc([S+](C)[O-])[nH]c2-c2ccc(OC)cc2)cc1` (stereo not shown) [Example 56]: the ED50 in experiment [1] (po) turned out to be 6.2 mg/kg.

Consider `O=S(=O)(c1nc(-c2ccccc2)c(-c2ccccc2)[nH]1)C(F)(F)C(F)Cl` (stereo not shown) [Example 73], for which the ED50 in experiment [1] (po) came out at 0.25 mg/kg.

As for `O=S(=O)(c1nc(-c2ccccc2)c(-c2ccccc2)[nH]1)C(F)(F)C(F)Br` (stereo not shown) [Example 126], the ED50 in experiment [1] (po) stood at 0.85 mg/kg.

On to `CS(=O)(=O)c1nc(-c2ccccc2)c(-c2ccc(F)cc2)[nH]1` [Example 141], for which the “percent (%) reduction in paw volume” value in experiment [1] (9 mg./kg., oral) amounted to 26%.

`O=S(=O)(c1nc(-c2ccc(Cl)cc2)c(-c2ccc(C(F)(F)F)cc2)[nH]1)C(F)(F)C(F)F` [Example 90]: the ED50 in experiment [1] (po) was 1.8 mg/kg.

In the case of `O=S(=O)(c1nc(-c2ccccc2)c(-c2ccc(Cl)c(Cl)c2)[nH]1)C(F)(F)C(F)F` [Example 137, 4(or 5)-(3,4-dichlorophenyl)-5(or 4)-phenyl-2-(1,1,2,2-tetrafluoroethylsulfonyl)imidazole], the ED50 in experiment [1] (po) came to 0.25 mg/kg.

Regarding `Fc1cccc(-c2[nH]c(SC(F)(F)C(F)F)nc2-c2ccccc2)c1` [Example 120], in experiment [1] (1.0 mg./kg., oral), the “percent (%) reduction in paw volume” value is on record as 37%.

As for `CSc1nc(-c2ccc(Cl)cc2)c(-c2ccc(F)cc2)[nH]1` [Example 33], the ED50 in experiment [1] (po) is 3.8 mg/kg.

For `FC(F)(F)Sc1nc(-c2ccccc2)c(-c2ccc(Cl)c(Cl)c2)[nH]1` [Example 111], the ED50 in experiment [1] (po) amounted to 7 mg/kg.

For `FC(Cl)C(F)(F)Sc1nc(-c2ccccc2)c(-c2ccccc2)[nH]1` (stereo not shown) [Example 41], the “Adjuvant Arthritis (ED50%)” value in experiment [1] (oral) was 3.9 mg/kg.

As to `C[S+]([O-])c1nc(-c2ccccc2)c(-c2ccc(Cl)c(Cl)c2)[nH]1` (stereo not shown) [Example 146], in experiment [1] (po), the ED50 turned out to be 50 mg/kg.

For the molecule `FC(F)C(F)(F)Sc1nc(-c2ccccc2Cl)c(-c2cccc(Cl)c2)[nH]1` [Example 50], in experiment [1] (po), the ED50 came to 1.2 mg/kg.

`[O-][S+](c1nc(-c2ccc(Cl)cc2)c(-c2ccc(Cl)cc2)[nH]1)C(F)F` (stereo not shown) [Example 94]: in experiment [1] (po), the median effective dose (ED50) was 0.19 mg/kg.

Consider `CS(=O)(=O)c1nc(-c2ccc(Cl)cc2)c(-c2ccc(C(F)(F)F)cc2)[nH]1` [Example 88], for which the ED50 in experiment [1] (po) came out at 2.2 mg/kg.

Consider `C=CCS(=O)(=O)c1nc(-c2ccc(OC)cc2)c(-c2ccc(OC)cc2)[nH]1` [Example 55], for which the ED50 in experiment [1] (po) was 11 mg/kg.

`CCCSc1nc(-c2ccc(OC)cc2)c(-c2ccc(OC)cc2)[nH]1` [Example 27]: the ED50 in experiment [1] (po) is 9 mg/kg.

Turning to `[O-][S+](c1nc(-c2ccc(F)cc2)c(-c2ccc(F)cc2)[nH]1)C(F)(F)C(F)F` (stereo not shown) [Example 134], in experiment [1] (po), the ED50 stood at 0.055 mg/kg.

For `CCOc1ccc(-c2[nH]c(SC)nc2-c2ccccc2)cc1` [Example 115], the “percent (%) reduction in paw volume” value in experiment [1] (50 mg./kg., oral) came to 33%.

As for `O=S(=O)(c1nc(-c2ccccc2)c(-c2cccc(Cl)c2)[nH]1)C(F)(F)C(F)F` [Example 144], the ED50 in experiment [1] (po) was 0.05 mg/kg.

As to `COc1ccc(-c2nc(SC(F)(F)F)[nH]c2-c2ccc(F)cc2)cc1` [Example 109], the ED50 in experiment [1] (po) was 2.7 mg/kg.

One may read the ED50 as the dose that gives a 50% effect, or the effect in half of the subjects.
